Test results reported in ChEMBL document CHEMBL1156829 (Proc Natl Acad Sci U S A, 2008).

How the values were obtained:
[1] = NOVARTIS: Cytotoxicity against human hepatocellular carcinoma cell line (Huh7); format: toxicity, cell-based, Huh-7; settings: Huh7 cells (hepatocellular carcinoma cell line)
Plasmodium falciparum [2] = test: NOVARTIS: Inhibition of Plasmodium falciparum 3D7 (drug-susceptible) proliferation in erythrocyte-based infection assay; format: functional, organism-based; settings: Plasmodium falciparum, 3D7
Plasmodium falciparum [3] = test: NOVARTIS: Inhibition of Plasmodium falciparum W2 (drug-resistant) proliferation in erythrocyte-based infection assay; format: functional, organism-based; settings: Plasmodium falciparum, W2; read-out: EC50

Row | Compound | CC50 [1] | EC50 (Plasmodium falciparum [2]) | EC50 (Plasmodium falciparum [3])
1 | C=CC1CN2CCC1CC2C(O)c1ccnc2ccccc12 (centres undefined) | > 100000 nM | 43.5 nM | 84.1 nM
2 | Cc1cc(C)[n+]2nc(N)c3ccccc3c2n1.[O-][Cl+3]([O-])([O-])[O-] | > 10000 nM | 248 nM | 193 nM
3 | O=C(CN1CCCC1)Nc1ccc(Cc2ccc(NC(=O)CN3CCCC3)cc2)cc1 | 18800 nM | 307 nM | 367 nM
4 | c1cc(-c2nc3ccccc3[nH]2)nc(-c2nc3ccccc3[nH]2)c1 | 47500 nM | 686 nM | 916 nM
5 | C=CCNc1cc(-c2ccccn2)nc(-c2ccccn2)n1 | > 10000 nM | 125 nM | 192 nM
6 | COc1cncc(-c2cncc(-c3ccc(C)cc3)n2)c1 | > 100000 nM | 94.9 nM | 85.2 nM
7 | COC(=O)c1cn([C@@H]2C[C@@H](C(=O)NCc3cccc(C(F)(F)F)c3)N(C3CCN(Cc4ccccc4)CC3)C2)nn1 | > 100000 nM | 1520 nM | 1980 nM
8 | CC(CNC(=O)c1ccccc1)C(=O)OCC(=O)[C@@]12OC(C)(C)O[C@@H]1CC1C3CCC4=CC(=O)C=C[C@]4(C)[C@@]3(F)[C@@H](O)C[C@@]12C (some centres undefined) | 8220 nM | 165 nM | 159 nM
9 | COc1cccc(-c2ccc(O)c(CNC3CCCCCCC3)c2)n1 | 23100 nM | 71.9 nM | 20.3 nM
10 | S=C(NN=CC=NNC(=S)Nc1ccccc1)Nc1ccccc1 | 15000 nM | 1040 nM | 288 nM
11 | Cc1ccc(OCCCCCCNCCO)c(C)c1 | 20400 nM | 1970 nM | 391 nM
12 | CCOC(=O)c1c(C)n(-c2ccccc2)c2ccc(OC(=O)c3ccccc3NC(=O)C(C)C)cc12 | > 100000 nM | 885 nM | 1990 nM
13 | CC(=O)N(C)C1=C(N2CCCC2)C(=O)c2ccccc2C1=O | 15000 nM | 516 nM | 299 nM
14 | COc1ccc(C=C2N=C(c3ccc(Cl)cc3)N(c3ccccc3)C2=O)cc1OC | > 100000 nM | > 12500 nM | 1990 nM
15 | COc1ccc(NC(=O)c2cc3cc(C4(O)CCN(CC(C)c5ccccc5)CC4)ccc3o2)cc1 (centres undefined) | > 100000 nM | 2400 nM | 1980 nM
16 | COC(C)(C)CNCc1cc2cc3c(cc2n(Cc2cccc(C(F)(F)F)c2)c1=O)CCC3 | > 10000 nM | > 1250 nM | > 198 nM
17 | C#CC(C)(C)NC(=O)c1ccc(-c2ccc(CC)cc2)cc1 | > 100000 nM | 3030 nM | 1970 nM
18 | COc1cc(OC)c(NC(=O)c2ccc(N3CC4CC(C3)c3cccc(=O)n3C4)c([N+](=O)[O-])c2)cc1Cl (centres undefined) | > 100000 nM | 9690 nM | 1930 nM
19 | CCCCn1c(=N)n(CC(O)c2ccc(Cl)c(Cl)c2)c2ccccc21 (centres undefined) | 6240 nM | 62.5 nM | 120 nM
20 | COc1ccc(Cl)cc1NC(=O)CSC1=C(C#N)C(c2ccccc2)C(C(=O)Nc2ccccc2)=C(C)N1 (centres undefined) | > 100000 nM | 3760 nM | 1910 nM
21 | COc1cccc(-c2cn3c(n2)sc2cc(C(=O)NC4CCN(Cc5ccccc5)CC4)ccc23)c1 | > 100000 nM | 513 nM | 1980 nM
22 | CCCc1ccc(C(=O)NC(=O)c2ccccc2O)cc1 | 16500 nM | 193 nM | 325 nM
23 | CC(=O)N(C=C1Sc2ccccc2C1=O)c1ccc(C)cc1 | > 100000 nM | 10700 nM | 1970 nM

Row | Compound | CC50 [1] | EC50 (Plasmodium falciparum [2]) | EC50 (Plasmodium falciparum [3])
24 | C=CC(C)(CCC=C(C)C)c1ccc2c3c(c[nH]c13)CC(CO)NC(=O)C(C(C)C)N2C (centres undefined) | > 10000 nM | 552 nM | 197 nM
25 | COc1cccc(C=NNC(=O)CSc2ccccc2C)c1O | > 100000 nM | 7940 nM | 1960 nM
26 | COc1ccc(S(=O)(=O)N(C)CCCNc2ccnc3cc(Cl)ccc23)cc1 | 10100 nM | 115 nM | 197 nM
27 | Cc1cccc(NC(=O)c2cc(Cl)nc3ccccc23)c1 | > 100000 nM | 3670 nM | 1940 nM
28 | Cc1ccc(C(=O)NNc2nc(Nc3ccccc3)nc(N3CCCC3)n2)cc1 | > 100000 nM | > 12500 nM | 1990 nM
29 | CN(C)S(=O)(=O)c1ccc(C(=O)Nc2nc3c(ccc4ccccc43)s2)cc1 | > 100000 nM | > 9470 nM | 1970 nM
30 | CN(CCCNc1ccnc2cc(Cl)ccc12)S(=O)(=O)c1ccc([N+](=O)[O-])cc1 | > 11100 nM | 240 nM | 217 nM
31 | CC1CN(C2CC(=O)N(c3ccccc3)C2=O)CC(C)O1 (centres undefined) | > 10000 nM | 873 nM | > 195 nM
32 | CC1=C(C(=O)OC2CCCCC2)C(c2cccc([N+](=O)[O-])c2)C2=C(CCCC2=O)N1 (centres undefined) | 68400 nM | 1640 nM | 1330 nM
33 | CC(=O)c1cccc(CN2CCC(C(=O)Nc3ccc(-n4nc(C)cc4C)cc3)CC2)c1 | > 100000 nM | 2160 nM | 1950 nM
34 | COc1cc2nc(NCc3ccccn3)n3nc(-c4ccccc4)nc3c2cc1OC | > 100000 nM | 3770 nM | 1910 nM
35 | CCOC(=O)C1=C(CC)NC2=C(C(=O)CCC2)C1c1ccc(N(C)C)cc1 (centres undefined) | > 100000 nM | 8700 nM | 1910 nM
36 | CC(=O)c1ccc(-n2cc(C(=O)C(C)Oc3ccc(Cl)cc3Cl)nn2)cc1 (centres undefined) | > 10000 nM | 72.9 nM | 192 nM
37 | CCOc1ccc(S(=O)(=O)N=C2C=C(Nc3ccc(O)cc3)C(=O)c3ccccc32)cc1 | 7050 nM | 158 nM | 135 nM
38 | FC(F)(F)c1ccc(-c2nc(C34CC5CC(CC(C5)C3)C4)cs2)cc1 | > 10000 nM | 1570 nM | 200 nM
39 | CCN(CC)CCCNC(=S)N(CCN(C)C)Cc1cc2cc(C)cc(C)c2[nH]c1=O | > 100000 nM | 2420 nM | 2000 nM
40 | CCOC(=O)c1cnc2c(C)cccc2c1Nc1ccc(C(C)=O)cc1 | > 100000 nM | 119 nM | 84.6 nM
41 | COc1cc(CN(CCCN2CCOCC2)C(=O)Nc2cccc(C)c2)ccc1OCc1ccccc1 | > 10000 nM | > 1250 nM | 8.39 nM
42 | CC(C)(C)CC(=O)NCc1ccc(OC2CCN(CC(c3ccccc3)c3ccccc3)CC2)cc1 | > 10000 nM | 1160 nM | < 8.77 nM
43 | Cc1ccc2nc(Cl)c3cc(C(=O)Nc4ccc(CN5CCC(C)CC5)cc4)sc3c2c1 | > 75800 nM | 45.1 nM | 64.9 nM
44 | Cc1ccn2c(NC(C)(C)CC(C)(C)C)c(-c3ccccc3OC(=O)c3cccc(F)c3)nc2c1 | > 10000 nM | 581 nM | < 8.37 nM
45 | Oc1ccc(CN2CCCCC2)nc1-c1ccccc1 | > 100000 nM | 241 nM | 86.6 nM
46 | O=C(NC1CCN(CC(O)CN(Cc2ccccc2)S(=O)(=O)c2ccccc2)C1)c1ccsc1 (centres undefined) | > 10000 nM | 120 nM | < 8.62 nM

Row | Compound | CC50 [1] | EC50 (Plasmodium falciparum [2]) | EC50 (Plasmodium falciparum [3])
47 | CCOc1ccc(N(C(C)=O)C2=C(N3CCN(C)CC3)C(=O)c3ccccc3C2=O)cc1 | 12900 nM | 78.7 nM | 10.9 nM
48 | Cc1cccc(NC(=O)c2ccc(N3CC4CC(C3)c3cccc(=O)n3C4)c(NC(=O)Cc3c(F)cccc3Cl)c2)n1 (centres undefined) | > 10000 nM | > 1450 nM | 197 nM
49 | CCC(COC)NC(=O)c1cn(C2CCCCC2)cc(C(=O)NC(C)(C)C)c1=O (centres undefined) | > 100000 nM | 2900 nM | 1980 nM
50 | O=C(O)CC(c1ccc2c(c1)OCO2)N1CCS(=O)(=O)CC1 (centres undefined) | > 10000 nM | > 1250 nM | > 196 nM
51 | O=C(Cc1cccs1)N1CCN(c2ccccn2)CC1 | > 100000 nM | 3950 nM | 1930 nM
52 | O=c1c2ccccc2nc(C=Cc2ccc([N+](=O)[O-])o2)n1-c1ccc(Br)cc1 | > 100000 nM | > 12300 nM | 1920 nM
53 | O=C(CSc1ccc(Cl)cc1)NN=C1C(=O)Nc2ccccc21 | > 100000 nM | > 12500 nM | > 1990 nM
54 | C=C[C@H]1CN2CC[C@H]1C[C@@H]2[C@@H](OC(=O)C(C)C)c1ccnc2ccccc12 | > 10000 nM | 318 nM | 199 nM
55 | Cc1cc(N2CCCCC2)nc(NCc2ccccc2)n1 | 38400 nM | 5760 nM | 739 nM
56 | CCOc1ccc(C(=O)CN2C(=O)c3ccccc3OC(C(C)C)C2=O)cc1[N+](=O)[O-] (centres undefined) | > 100000 nM | > 12500 nM | 1920 nM
57 | Cc1ccn2c(NC(C)(C)CC(C)(C)C)c(-c3ccccc3OC(=O)c3ccc(F)cc3)nc2c1 | > 10000 nM | 897 nM | 8.7 nM
58 | CCOC(=O)CCCSc1nc(-c2cccs2)cc(C(F)(F)F)c1C#N | > 10000 nM | 352 nM | 198 nM
59 | CC(=O)Nc1ccc2c(c1)CCCC2 | > 10000 nM | 1130 nM | 191 nM
60 | CNC1CC2OC(C)(C1OC)n1c3ccccc3c3c4c(c5c6ccccc6n2c5c31)C(=O)NC4O (centres undefined) | […] | 190 nM | > 195 nM
61 | O=C1NC(=S)NC1=Cc1ccc(C(F)(F)F)cc1 | > 100000 nM | > 12500 nM | 1920 nM
62 | O=C1NC(=S)NC1=Cc1cccc(Oc2ccccc2)c1 | > 100000 nM | > 6890 nM | 1940 nM
63 | CN(CCCNc1ccnc2cc(Cl)ccc12)C(=O)C(C)(C)CCl | > 10000 nM | 94.9 nM | 192 nM
64 | CCCC(C)C(C(=O)Nc1c(C)cccc1C)N1C(=O)c2cc(NC(C)=O)ccc2NC(=O)[C@@H]1CCC(=O)O (some centres undefined) | 8510 nM | 1460 nM | > 163 nM
65 | CCOc1ccc2nc3cc(NCc4ccco4)ccc3c(N)c2c1 | 37900 nM | 846 nM | 757 nM
66 | COC(=O)c1c(-c2c(F)cccc2Cl)noc1/C=C/Nc1ccccc1 | > 10000 nM | 272 nM | 191 nM
67 | CCOC(=O)c1cc(-c2ccccc2)n(CCC(=O)Nc2ccccc2N2CCN(C)CC2)c1C | 17300 nM | 794 nM | 336 nM
68 | Cc1ccc2c(c1)c(-c1ccccc1)c(-c1ccccc1)n2CC(O)CN1CCN(Cc2ccccc2)CC1 (centres undefined) | > 100000 nM | 824 nM | 84.5 nM
